From US20190388377A1, “COMPOSITIONS AND METHODS FOR THE TREATMENT OF LIVER DISEASES AND DISORDERS” (AXCELLA HEALTH INC., priority 2018, published 2019)

Tests used:
[1] = test system: primary human hepatocytes; test: Intracellular lipid accumulation after 72 h by fluorescence microscopy, PHH model for NASH, Example 2; assay type: cell-based; details: FFA+TNFα; for Lipid Median (median fold change from control): 72 h
Experimental: (§1) PHH from two healthy human donors (Lonza, TRL) were seeded on day 0 at density of 6e04 cells in 96 well optical microplates (Thermofisher) in hepatocyte plating media (William's E medium, WEM) (Gibco) supplemented with 10% heat-inactivated FBS (Atlanta Bio), 2 mM Glutamax (Gibco), and 0.2% Primocin (InVivoGen) and incubated for 6 hours at 37° C., 5% CO2. After 6 hours, cells were washed twice and incubated overnight at 37° C., 5% CO2 with Hepatocytes defined medium (Corning) supplemented with 2 mM Glutamax (Gibco), and 1× Penicillin/Streptomycin. On day 1, cells were washed twice and incubated for 24 h in the hepatocyte culture media in the same conditions described above.
(§2) On day 2, cells were washed twice with DPBS 1× (Gibco) to remove excess amino acids and maintained in pretreatment media (1×HMDB, a defined custom amino acid concentration based on the mean physiological concentrations in blood, in WEM±supplemental amino acids): • a. Amino acid-free WEM (US Biologicals) supplemented with 11 mM Glucose (Sigma), 0.272 mM Sodium Pyruvate (Sigma), 1× P/S (Gibco) and containing 1×HMDB with no supplemental amino acids; or • b. The same media described above 1×HMDB WEM with supplemental amino acid and amino acid combination treatments at various concentrations. Cells were maintained in the defined media (a. & b.) for 24 hours at 37° C., 5% CO2. The HMDB values are published in the Human Metabolome Database (Wishart D S, Tzur D, Knox C, et al., HMDB: the Human Metabolome Database. Nucleic Acids Res. 2007 January; 35 (Database issue):D521-6. 17202168; which is hereby incorporated by reference in its entirety). Co-Treatment with Free Fatty Acids and Amino Acids Combination
(§3) After 24 h pre-treatment, cells maintained in the pretreatment media±supplemental amino acids (section (a. & b.) described above) were exposed to free fatty acids (FFA) at 250 uM with a ratio of 2:1 (Oleate:Palmitate) supplemented with TNF-α (Thermofisher) at 1 ng/ml. Cells were incubated with the FFAs mixture (FFAs+TNF-α)±supplemental amino acids treatments for 24 hours at 37° C., 5% CO2. After 24 hours incubation, media was removed for cytokine analysis and replaced by fresh media containing the same conditions described above (FFAs mixture±supplemental amino acids treatments). Cells were incubated for an additional 48 hours for a total of 72 hours of FFA and TNF-α stimulation. After 72 hours of incubation, media was removed for albumin and urea analysis and the cells were fixed for nuclei and lipid staining.
After 72 hours, cells were washed twice in 100 ul PBS 1× (Gibco), fixed with 4% Paraformaldehyde, and washed twice with PBS 1× (100 ul). After fixation, lipids were stained with HCS LipidTOX Red Neutral (Thermofisher Scientific) diluted 1000× and nuclei were stained with Hoechst 3342 (Life Technologies) diluted to 4 ug/ml. The LipidTOX™ neutral lipid stain has an extremely high affinity for neutral lipid droplets that was detected by fluorescence microscopy using a high content imager (Molecular Devices). Data was normalized to the cell concentration determined by nuclei count. Images were analyzed and total lipid area was calculated using granularity module in MetaXpress 6 software. Data is reported as median fold change from control, statistical analysis was done using t-Test.

Albumin = Albumin secretion after 72 h by ELISA, PHH model, Example 2; assay type: cell-based, human; details: FFA+TNFα
Experimental: as §1, §2, §3
Albumin secretion was measured as a functionality test in primary human hepatocytes. Albumin was measured by ELISA (Human Albumin ELISA Quantitation set, Bethyl Laboratories) at 1/200 dilution in the sample diluent (Bethyl Laboratories). Data is reported as median fold change from control, statistical analysis was done using t-Test.

Procollagen III = Procollagen III secretion by ELISA, TGFβ1-stimulated hepatic stellate cells, Example 4; assay type: cell-based, human; details: HSC, three donors
Experimental: Primary human hepatic stellate cells were obtained from Samsara Sciences. Cells from three different donors were grown in Complete HSC Medium to ˜80% confluence in T75 or T150 flasks below passage 10 were seeded into sterile, collagen I coated, 96-well optical plastic microplates (ThermoScientific) and incubated overnight at 37° C., 5% CO2 in a humidified incubator in DMEM with 2% Fetal Bovine Serum and 1% Antimycotic. […] After 24 hours of stimulus, supernatant was removed and used to measure Procollagen III and cells were then washed and fixed with 4% paraformaldehyde for further staining. Procollagen III, an important biomarker of fibrosis was measured by ELISA (Human PCIII Elisa Kit, G-Biosciences) following the manufacturer's recommendations. Fixed cells with 4% paraformaldehyde were permeabilized with 0.1% Triton X-100 then immunostained for alpha SMA and labeled for EdU incorporation.

CCL18 = CCL18 secretion by ELISA, IL-4-treated primary human M2 macrophages, Example 5; assay type: cell-based; details: IL-4 1 ng/ml, 5 mM
Experimental: On day 0, primary human PBMC derived macrophages were seeded in Dulbecco's Modified Eagle Medium (DMEM) (Gibco) supplemented with penicillin-streptomycin (Hyclone) and 10% heat inactivated fetal bovine serum (HI-FBS) (Atlanta Bio) into 96-well microplates (ThermoFisher) and incubated overnight at 37° C., 5% CO2. On day 1, cells were washed once with DPBS and then treated with: • a. Amino acid free DMEM (US Biologicals) containing a defined custom amino acid concentration based on the mean physiological concentrations in blood based on values published in the Human Metabolome Database (HMDB), with 6 mM glucose, 1 mM sodium pyruvate, 10 mM HEPES, penicillin-streptomycin; or • b. The same medium described above with one amino acid or amino acid combination at various concentrations
On day 2, cells were treated with the same mediums described above supplemented with recombinant human interleukin-4 (1 ng/ml of IL-4; Peprotech). […]
On day 3, the supernatant was collected and immediately frozen in −80° C. freezer. Cells were washed once with DPBS and viability was assessed using the WST-8 Cell Proliferation Cytotoxicity Assay (Dojindo) according to manufacturer-supplied protocol. […] Protein levels in supernatant samples were analyzed by ELISA for CCL18 using commercially available kits (R&D Systems) according to manufacturer-supplied protocols.

CC(=O)N[C@@H](CS)C(=O)O [Nac, N-acetylcysteine]
Lipid Median (median fold change from control) ([1]; donor 1, 5 mM): −0.013 | Lipid Median (median fold change from control) ([1]; donor 2, 7.5 mM): −0.359 | lipid accumulation (in words) ([1]; hepatocyte donor 1): did not reduce lipid accumulation | lipid accumulation (in words) ([1]; hepatocyte donor 2): reduced lipid accumulation but less than the previously described combinations | albumin secretion (in words) (Albumin; hepatocyte donor 1): slightly decreased albumin secretion | albumin secretion (in words) (Albumin; hepatocyte donor 2): induce albumin secretion | procollagen III secretion (in words) (Procollagen III): decreased procollagen III secretion but at a lower extent than LIRNacCar and LIRQNacSCar | CCL18 Median Fold Change from Vehicle (log2) (CCL18): 0.387 log2
